Earlier results, collected in patent publication US20240287072A1, “SOLID STATE FORMS OF LUMATEPERONE SALTS AND PROCESSES FOR PREPARATION OF LUMATEPERONE AND SALTS THEREOF” (TEVA PHARMACEUTICALS INTERNATIONAL GMBH, priority 2018, published 2024).
Counter-ions that a name gives are not always drawn.

Legend:
[1] = hydrochloride salt disclosed in U.S. Pat. No. 7,183,282
[2] = hydrochloride salt disclosed in U.S. Pat. No. 7,183,282; remark: listed apart in the source
[3] = free base form, oily, sticky solid

stability [1]	hygroscopicity [2]	solubility [3]	Compound
poor	hygroscopic	–	CN1CCN2c3c(cccc31)[C@@H]1CN(CCCC(=O)c3ccc(F)cc3)CC[C@@H]12 [hydrochloride salt of lumateperone]
–	–	poor	CN1CCN2c3c(cccc31)[C@@H]1CN(CCCC(=O)c3ccc(F)cc3)CC[C@@H]12 [lumateperone, 1-(4-fluorophenyl)-4-((6bR, 10aS)-3-methyl-2,3,6b,9,10,10a-hexahydro-1H-pyrido[3′,4′:4,5]pyrrolo[1,2,3-de]quinoxalin-8(7H)-yl)butan-1-one]
